Data from publication PMC6054517, “Design and synthesis of novel oridonin analogues as potent anticancer agents” (Journal of Enzyme Inhibition and Medicinal Chemistry, 2018).
Where two headings read alike, the source gives them in different places.

What was measured:
A549 = assay: MTT antiproliferative assay, A549 cells; type: cell-based, human; conditions: for IC50: Homo sapiens, A549, MTT, 48 h, means ± SD, n = 3; for Selectivity index A549: IC50 on normal cells (L02)/IC50 on tumour cells (A549)
From the text: (§1) Human gastric cancer (AGS), human differentiation of advanced gastric cancer (MGC803), human colorectal cancer (HCT116), human lung cancer (A549), human hepatocellular carcinoma (Bel7402) and human cervical cancer (HeLa) cell lines were obtained from the State Key Laboratory of Natural Resources and Functional Molecules of the Changbai Mountain (Yanbian University) and maintained in Dulbecco’s modified Eagle’s medium and RPMI Media 1640 (RPMI1640), supplemented with 10% foetal bovine serum 100 IU/ml penicillin, […] and 2 mmol/l L-glutamine (Sigma) at 37 °7 in a humidified atmosphere containing 5% CO2.
(§2) All six human cancer cell lines and normal L02 cells were seeded in 96-well plates at the appropriate densities to ensure exponential growth throughout the experimental period (9 × 10^3 cells per well) and then allowed to adhere for 24 h. The cells were then treated for 48 h with four serial dilutions (100, 50, 10, and 1 µM) of each compound. 5-Fluorouracil (5-FU) was used as the positive control. After incubation for 48 h, 10 µl MTT solution was added to each well to give a final concentration of 2 mg ml^−1. The plates were then incubated for further 4 h. After incubation, the MTT solution was removed and 150 µl DMSO was added to each well to solubilise the formed product. To ensure complete solubilisation, the plates were shaken vigorously for 10 min at room temperature. The optometric density (OD) was read on a microplate reader (ELx800, BioTek, Highland Park, Winooski, VT) at a wavelength of 492 nm and the data were subsequently analysed. The percentage of cell growth inhibition was calculated from the following equation: inhibitory rate (%) = [1–(ODtreated–ODblank)/(ODcontrol–ODblank)] × 100.
(§3) The MTT assay was performed using a standard protocol.

[1] = test system: AGS, MGC803, Bel7402, HCT116, A549, and HeLa; assay: MTT assay, overall statement on six tumour cell lines; type: cell-based, human; conditions: six cancer cell lines
From the text: as §1, §2, §3

HCT116 cells [2] = assay: Cell cycle distribution by flow cytometry (PI); type: cell-based, human; conditions: HCT116, 5 μM, 48 h; control 19.35%
Method: HCT116 cells were plated in six-well plates (1.0 × 10^6 cells per well) and incubated at 37 °7 for 12 h. Exponentially growing cells were then incubated with compound 2p at different concentrations (0 , 5.0 µM) and oridonin at 5.0 µM. After 48 h, the cells were centrifuged at 1000 rpm for 10 min and then fixed in 70% ethanol at −20 °0 for at least 24 h. The cells were subsequently resuspended in phosphate-buffered saline (PBS) containing 50 µg ml^−1 RNase A and 50 µg ml^−1 PI. The cellular DNA content for the cell cycle distribution analysis was measured by flow cytometry using a FACSCalibur flow cytometer with Cell Quest software (Becton-Dickinson, Franklin Lakes, NJ), plotting at least 30,000 events per sample. The percentage of cells in the G1, S and G2 phases of the cell cycle were determined using the ModFit LT V4.0 software package (Verity Software, Topsham, ME).
Numerous cytotoxic compounds exert their antiproliferative effect by inducing cell cycle arrest (at a particular cell cycle checkpoint), apoptosis, or both[25]. These mechanisms are considered to be effective anticancer strategies. We used fluorescence-activated cell sorting analysis to explore the mechanism by which compound 2p reduced the viability of HCT116 cells. Compound 2p and oridonin were selected and tested against HCT116 cell lines at a concentration of 5 µM.

L02 = assay: MTT assay on normal cell line L02; type: cell-based; conditions: normal human liver cell line L02, MTT, 48 h
Method: as §2, with “5-Fluorouracil (5-FU) was used as the positive control.” left out
Lack of selective cytotoxicity is the main factor that restricts the dose of most conventional chemotherapeutic agents. […] Selectivity indexes between cancer cells and L-02 cells were calculated.

Hela = assay: MTT antiproliferative assay, HeLa cells; type: cell-based, human; conditions: for IC50: Homo sapiens, HeLa, MTT, 48 h, means ± SD, n = 3; for Selectivity index Hela: IC50 on normal cells (L02)/IC50 on tumour cells (Hela)
From the text: as §1, §2, §3

HCT116 [3] = assay: MTT antiproliferative assay, HCT116 cells; type: cell-based, human; conditions: for IC50: MTT, 48 h, means ± SD, n = 3; for Selectivity index HCT116: IC50 on normal cells (L02)/IC50 on tumour cells (HCT116)
From the text: as §1, §2, §3

HCT116 cells [4] = assay: Apoptosis by flow cytometry (annexin V-FITC/PI); type: cell-based, human; conditions: HCT116, 5 µM, 48 h; vehicle 6.20%
Method: Apoptosis was detected using an Apoptosis Detection Kit (Invitrogen, Eugene, OR). Briefly, cells were plated in six-well plates (1.0 × 10^6 cells per well) and incubated at 37 °C for 12 h. Exponentially growing cells were then incubated with compound 2p at different concentrations (0 , 5.0 µM) and oridonin at 5.0 µM. Following 48 h of incubation, the cells were collected and washed twice with PBS, once with 1 × binding buffer, and then stained with 5 µM annexin V-FITC and 2.5 µM PI in 1 × binding buffer for 30 min at room temperature in the dark. Apoptotic cells were quantified using a FACSCalibur flow cytometer with the Cell Quest software (Becton-Dickinson).
Because compound 2p arrested the cells in the G2 phase, we investigated whether it also causes apoptosis. HCT116 cells were treated with the vehicle, compound 2p (5 µM), or oridonin (5 µM) for 48 h, and then stained with annexin V-FITC and PI.

AGS = assay: MTT antiproliferative assay, AGS cells; type: cell-based, human; conditions: for IC50: Homo sapiens, AGS, 48 h, MTT, means ± SD, n = 3; for Selectivity index AGS: IC50 on normal cells (L02)/IC50 on tumour cells (AGS)
From the text: as §1, §2, §3

Bel7402 = assay: MTT antiproliferative assay, Bel7402 cells; type: cell-based, human; conditions: for IC50: Homo sapiens, Bel-7402, MTT, 48 h, means ± SD, n = 3
From the text: as §1, §2, §3

MGC803 = assay: MTT antiproliferative assay, MGC803 cells; type: cell-based, human; conditions: for IC50: Homo sapiens, MGC-803, MTT, 48 h, means ± SD, n = 3; for Selectivity index MGC803: IC50 on normal cells (L02)/IC50 on tumour cells (MGC803)
From the text: as §1, §2, §3

HCT116 [5] = conditions: cited from earlier work

| IC50 (A549) [µM] | IC50 (Hela) [µM] | IC50 (HCT116 [3]; Homo sapiens, HCT-116, 48 h) [µM] | IC50 (HCT116 [3]) [µM] | IC50 (AGS) [µM] | IC50 (Bel7402) [µM] | IC50 (MGC803) [µM] | Compound | Selectivity index A549 (A549) | antiproliferative activities against the six tumour cell lines (in words) [1] | percentage of G2 cell population (HCT116 cells [2]) [%] | IC50 (L02) [µM] | Selectivity index Hela (Hela) | Selectivity index HCT116 (HCT116 [3]) | IC50 value in L02 cells relative to that in HCT116 cells (selectivity) (HCT116 [3]; L02 versus HCT116) [fold] | percentage of total apoptotic cells (right quadrants, Q2 + Q3) (HCT116 cells [4]) [%] | Selectivity index AGS (AGS) | Selectivity index MGC803 (MGC803) | IC50 (HCT116 [5]) [µM] | Selectivity index Bel7402 (Bel7402; IC50 on normal cells (L02)/IC50 on tumour cells (Bel7402)) |
| --- | --- | --- | --- | --- | --- | --- | --- | --- | --- | --- | --- | --- | --- | --- | --- | --- | --- | --- | --- |
| 5.9 ± 0.52 | 6.33 ± 0.96 | 1.08 | 1.05 ± 0.23 | 4.09 ± 0.65 | 3.21 ± 0.58 | 4.54 ± 0.94 | CC(C)=CCOc1ccc(/C=C2/C(=O)[C@]34[C@H](O)[C@H]2CC[C@H]3C23CO[C@]4(O)[C@@H](O)[C@@H]2C(C)(C)CC[C@@H]3O)cc1 [Compound 2p, (1S,4aR,5S,6S,6aR,9S,11aS,14R,E)-1,5,6,14-tetrahydroxy-4,4-dimethyl-8-(4-((3-methylbut-2-en1yl)oxy)benzylidene)decahydro-1H-6,11b-(epoxymethano)-6a,9-methanocyclohepta[a]naphthalen-7(8H)-one] | 1.17 | more potent antiproliferative activities in vitro than oridonin | 41.46 | 6.88 ± 1.12 | 1.09 | 6.55 | 6.5 | 60.94 | 3.28 | 0.75 | – | – |
| – | – | – | – | – | – | – | CC(C)=CCOc1ccc(C(=O)/C=C/c2ccc(Cl)cc2)c(O)c1 [Compound 4] | – | – | – | – | – | – | – | – | – | – | 0.89 | – |
| 24.7 ± 2.11 | 15 ± 2.01 | 6.84 ± 0.98 | – | 8.35 ± 0.41 | 9.59 ± 1.19 | 9.18 ± 1.01 | C=C1C(=O)[C@]23[C@H](O)[C@H]1CC[C@H]2[C@@]12CO[C@]3(O)[C@@H](O)[C@@H]1C(C)(C)CC[C@@H]2O [Oridonin] | 0.28 | – | 37.80 | 6.97 ± 0.98 | 0.46 | 1.02 | – | 24.84 | 0.83 | 0.76 | – | 0.73 |
